Structures can show the parent of a compound that is named as a salt.
What was measured:
[1] = system: leukotriene D4 (LTD4)-induced contraction of guinea pig ileum; test: Antileukotriene action (in vitro test), isotonic contraction of isolated ileum induced with LTD4; settings: Cavia porcellus; test compound 10^-5 M, contraction with 10^-8 M LTD4; read-out: LTD4 action (inhibition exerted by a test compound at 10^-5 M)
Method: (§1) Antihistaminic action and antileukotriene action (in vitro test):
(§2) A guinea pig was subjected to ileectomy, and the ileum was cut to have a length of about 2 cm. Each piece of ileum was suspended in a Tyrode's buffer placed in a 20-ml organ bath. Isotonic contraction in response to histamine or leukotriene D4 was recorded by use of a recording apparatus. The Tyrode's buffer was aerated with a gas mixture (95% O2 -5% CO2) while the temperature of the buffer was maintained at 30° C. Antihstaminic activity was tested by adding 10^-8 to 10^-4 M histamine to the organ bath and obtaining a dose-response curve. After washing with a buffer several times, a test compound was added to the organ bath. Thirty minutes later, another dose-response curve of histamine was obtained. For the test of antileukotriene activity, effects exerted by addition of a 10^-5 M test compound on the contraction included with 10^-8 M LTD4 was investigated.

[2] = biological target: histamine-induced contraction of guinea pig ileum (Cavia porcellus, UniProt P31389); test: Antihistaminic action (in vitro test), isotonic contraction of isolated ileum in response to histamine; settings: histamine 10^-8 to 10^-4 M, 30 min after addition of test compound; for Kb: read-out: Anti-histaminic action pA2 (converted)
Method: as §1, §2

H1 receptor [3] = biological target: H1 receptor (Cavia porcellus, UniProt P31389); test: biochemical; assay type: binding, guinea pig
Method: H1 receptor binding inhibitory test:
Reaction was stopped by addition of ice-cold phosphate buffer, and immediately thereafter, the reaction mixture was filtered by use of a Wattman CF/C filter. The filter was washed twice, each time with 20 ml ice-cold buffer. Radioactivity of the residue was measured by use of a liquid scintillation counter. From the value as obtained when a test compound was not added and values as obtained when the test compound was added at different concentrations, there was determined a dose-response curve representing suppression action of the test compound, from which a 50% inhibitory concentration (IC50) was obtained. Based on the IC50 value and by use of the Cheng-Prusoff equation, a dissociation constant (KD) was calculated (Table 4). In a saturation test, 10^-4 M R(-)-dimethindene was used for the measurement of the amount of non-specific binding.

LTD4 Receptor = biological target: T1, LTD4 Receptor (Cavia porcellus, UniProt Q2NNR5); test: LTD4 Receptor binding inhibitory test ([^3 H] leukotriene D4); design: species or system guinea pig
T1 construct: guinea pig lung protein; from tissue; host or cells: guinea pig lung
T1 sequence (Q2NNR5 1-340): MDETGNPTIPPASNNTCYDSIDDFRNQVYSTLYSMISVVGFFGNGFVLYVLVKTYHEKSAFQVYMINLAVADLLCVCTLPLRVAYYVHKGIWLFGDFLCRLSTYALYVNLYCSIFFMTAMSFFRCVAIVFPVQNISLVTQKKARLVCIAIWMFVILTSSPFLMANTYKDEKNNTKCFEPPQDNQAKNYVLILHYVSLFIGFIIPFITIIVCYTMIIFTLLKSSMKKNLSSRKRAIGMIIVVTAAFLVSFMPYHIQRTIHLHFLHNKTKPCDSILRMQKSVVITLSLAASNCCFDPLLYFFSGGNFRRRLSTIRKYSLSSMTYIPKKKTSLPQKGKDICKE
Method: LTD4 Receptor binding inhibitory test:
Reaction was stopped by addition of ice-cold Tris-HCl/NaCl (10 mM/100 mM, pH 7.5) buffer, and immediately thereafter, the reaction mixture was filtered by use of a Wattman CF/C filter. The filter was washed twice, each time with 20 ml ice-cold buffer. Radioactivity of the residue was measured by use of a liquid scintillation counter. […] In a saturation test, 2 μM leukotriene D4 was used for the measurement of the amount of non-specific binding.

H1 receptor [4] = biological target: T2, H1 receptor (Mus musculus, UniProt P70174); test: Test on migration into the brain (ex vivo [^3 H]mepyramine binding in mouse brain after intraperitoneal administration); design: species or system mice; settings: ip
T2 construct: from tissue; host or cells: mouse brain homogenate after intraperitoneal dosing
Method: Test on migration into the brain:
The test was performed in accordance with a method described by Zang. […] Briefly, several mice each weighing 20-23 g were provided, and to each mouse was intraperitoneally administered a test sample having a predetermined concentration. One hour later, each mouse was sacrificed and its brain was removed. The brain tissue was mixed with 30 mM Na, K phosphate buffer (pH 7.5) so as to attain a concentration of 40 ml/g wet weight, and the mixture was homogenized. […] The mixture was incubated at 37° C. for 50 minutes. Subsequently, reaction was stopped by addition of ice-cold phosphate buffer, and immediately thereafter, the reaction mixture was filtered by use of a Wattman CF/C filter. The filter was washed twice, each time with 20 ml ice-cold buffer. Radioactivity of the residue was measured by use of a liquid scintillation counter. […] The cerebral migration index, BPindex, was calculated from the following equation.
BPindex=IC50 (mg/kg)/dissociation constant for H1 recepters (nM)

[5] = system: leukotriene D4 (LTD4)-induced contraction of guinea pig ileum; test: Antileukotriene action (in vitro test), isotonic contraction of isolated ileum induced with LTD4; settings: Cavia porcellus; contraction with 10^-8 M LTD4

H1 receptor (Cavia porcellus, UniProt P31389), sequence (P31389 whole entry): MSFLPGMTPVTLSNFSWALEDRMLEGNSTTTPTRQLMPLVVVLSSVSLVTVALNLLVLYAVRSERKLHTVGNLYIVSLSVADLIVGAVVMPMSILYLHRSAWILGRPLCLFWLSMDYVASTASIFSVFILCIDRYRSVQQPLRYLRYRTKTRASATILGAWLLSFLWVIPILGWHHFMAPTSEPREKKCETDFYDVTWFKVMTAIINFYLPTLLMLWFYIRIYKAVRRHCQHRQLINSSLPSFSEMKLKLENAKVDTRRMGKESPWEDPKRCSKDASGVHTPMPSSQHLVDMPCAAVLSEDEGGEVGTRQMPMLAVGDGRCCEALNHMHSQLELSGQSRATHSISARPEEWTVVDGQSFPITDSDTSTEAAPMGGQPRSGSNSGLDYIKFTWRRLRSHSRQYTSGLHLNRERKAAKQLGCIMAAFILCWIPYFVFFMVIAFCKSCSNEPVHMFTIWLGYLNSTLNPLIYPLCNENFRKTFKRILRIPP
histamine-induced contraction of guinea pig ileum, sequence (P31389 whole entry): as above
T2 sequence (P70174 whole entry): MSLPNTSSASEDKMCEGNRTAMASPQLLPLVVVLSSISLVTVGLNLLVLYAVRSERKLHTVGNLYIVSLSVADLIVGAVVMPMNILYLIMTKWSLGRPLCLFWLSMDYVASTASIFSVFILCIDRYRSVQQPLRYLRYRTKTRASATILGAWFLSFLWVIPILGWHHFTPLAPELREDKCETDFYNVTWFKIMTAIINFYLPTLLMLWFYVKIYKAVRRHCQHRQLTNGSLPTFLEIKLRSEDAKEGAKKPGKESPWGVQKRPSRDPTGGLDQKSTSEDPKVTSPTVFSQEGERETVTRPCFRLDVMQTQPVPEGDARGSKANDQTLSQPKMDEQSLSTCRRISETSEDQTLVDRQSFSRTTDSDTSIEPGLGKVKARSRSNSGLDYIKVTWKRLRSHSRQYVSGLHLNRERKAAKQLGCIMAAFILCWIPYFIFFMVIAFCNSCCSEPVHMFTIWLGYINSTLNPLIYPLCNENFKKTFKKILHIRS

Row | Kb [2] [nM] | Kd (H1 receptor [3]) [nM] | Kd (LTD4 Receptor) [nM] | ED50 (H1 receptor [4]; 1 h, read-out: IC50 (ex vivo)) [mg/kg] | Anti-histaminic action pD'2 [2] | IC50 [5] [nM] | Structure (SMILES) | inhibition at 10 µM [1] [%] | selectivity ratio at 1 h (H1 receptor [4]; brain, BPindex = IC50 (mg/kg)/dissociation constant for H1 receptors (nM), read-out: cerebral migration index, BP index)
1 | 2.95 | – | – | – | – | – | O=C1CCc2ccc(OCCCN3CCC(=Cc4ccc5ccccc5n4)CC3)cc2N1 [Example 9, 7-[3-[4-(2-Quinolylmethylene)piperidino]propoxy]-1,2,3,4-tetrahydroquinolin-2-one oxalate] | 15 | –
2 | 0.174 | 1.15 | 19000 | – | – | – | O=C1NCCCc2cc(OCCCN3CCC(=Cc4ccc5ccccc5n4)CC3)ccc21 [Example 13, 7-[3-[4-(2-Quinolylmethylene)piperidino]propoxy]-2,3,4,5-tetrahydro-1H-benz[c]azepin-1-one oxalate] | 39 | –
3 | 0.0832 | 0.0351 | 9860 | 33 | – | – | Cc1ccc(OCCN2CCC(=Cc3ccc4ccccc4n3)CC2)c2ccc(=O)[nH]c12 [Example 10, 8-Methyl-5-[2-[4-(2-quinolylmethylene)-piperidino]ethoxy]carbostyryl] | 61 | 930
4 | 0.141 | – | 55000 | – | – | – | Cc1ccc(OCCCN2CCC(=Cc3ccc4ccccc4n3)CC2)c2c1NC(=O)CC2 [Example 3, 8-Methyl-5-[3-[4-(2-quinolylmethylene)piperidino]propoxy]-1,2,3,4-tetrahydroquinolin-2-one] | 77 | –
5 | 0.224 | – | – | – | – | – | O=C1CCc2cccc(OCCCN3CCC(=Cc4ccc5ccccc5n4)CC3)c2N1 [Example 8, 8-[3-[4-(2-Quinolylmethylene)piperidino]propoxy]-1,2,3,4-tetrahydroquinolin-2-one oxalate] | 30 | –
6 | – | 0.0469 | 54400 | – | – | – | O=C1CCc2cc(OCCCN3CCC(=Cc4ccc5ccccc5n4)CC3)ccc2N1 [Example 5, 6-[3-[4-(2-Quinolylmethylene)piperidino]propoxy]-1,2,3,4-tetrahydroquinolin-2-one] | – | –
7 | – | – | – | – | 8.01 | – | O=C1CSc2cc(OCCCN3CCC(Cc4ccc5ccccc5n4)CC3)ccc2N1 [Example 16, 7-[3-[4-(2-Quinolylmethyl)piperidino]propoxy]-3,4-dihydro-2H-1,4-benzothiazin-3-one] | 15 | –
8 | 0.468 | – | – | – | – | 3400 | Cc1ccc(OCCN2CCC(Cc3ccc4ccccc4n3)CC2)c2ccc(=O)[nH]c12 [Example 25, 8-Methyl-5-[2-[4-(2-quinolylmethyl)-piperidino]ethoxy]carbostyryl] | 88 | –
9 | 0.166 | – | – | – | – | – | Cc1ccc(OCCN2CCC(Cc3ccc4ccccc4n3)CC2)c2c1NC(=O)CC2 [Example 17, 8-Methyl-5-[2-[4-(2-quinolylmethyl)piperidino]ethoxy]-1,2,3,4-tetrahydroquinolin-2-one] | 23 | –
10 | – | 164 | 12700 | – | – | – | O=C1CCc2cc(OCCN3CCC(=Cc4ccc5ccccc5n4)CC3)ccc2N1 [Example 4, 6-[2-[4-(2-Quinolylmethylene)piperidino]ethoxy]-1,2,3,4-tetrahydroquinolin-2-one] | – | –
11 | 0.0525 | – | 98900 | – | – | – | C(=C1CCN(CCCOc2ccc3c(c2)CCCc2nnnn2-3)CC1)c1ccc2ccccc2n1 [Example 14, 8-[3-[4-(2-Quinolylmethylene)piperidino]propoxy]-5,6-dihydro-4H-tetrazolo[1,5-a]benz[b]azepine oxalate] | 40 | –
12 | – | – | – | – | 8.22 | – | O=C1CSc2cc(OCCCN3CCC(=Cc4ccc5ccccc5n4)CC3)ccc2N1 [Example 2, 7-[3-[4-(2-Quinolylmethylene)piperidino]propoxy]-3,4-dihydro-2H-1,4-benzothiazin-3-one] | 21 | –
13 | 0.178 | 0.0238 | 15800 | – | – | – | O=C1CCCc2cc(OCCCN3CCC(=Cc4ccc5ccccc5n4)CC3)ccc2N1 [Example 12, 7-[3-[4-(2-Quinolylmethylene)piperidino]propoxy]-2,3,4,5-tetrahydro-1H-benz[b]azepin-2-one oxalate] | 12 | –
14 | 0.324 | 3.1 | 8060 | – | – | – | Cc1ccc(OCCCN2CCC(Cc3ccc4ccccc4n3)CC2)c2c1NC(=O)C2(C)C [Example 15, 4-[3-[4-(2-quinolylmethyl)piperidino]-propoxy]-3,3,7-trimethyl-2,3-dihydro-1H-indol-2-one] | 19 | –
15 | 0.162 | – | – | – | – | – | Cc1ccc(OCCCN2CCC(Cc3ccc4ccccc4n3)CC2)c2ccc(=O)[nH]c12 [Example 26, 8-Methyl-5-[3-[4-(2-quinolylmethyl)-piperidino]propoxy]carbostyryl] | 29 | –
16 | 0.219 | – | 20000 | – | – | – | Cc1ccc(OCCCN2CCC(=Cc3ccc4ccccc4n3)CC2)c2ccc(=O)[nH]c12 [Example 11, 8-Methyl-5-[3-[4-(2-quinolylmethylene)-piperidino]propoxy]carbostyryl] | 39 | –
